# Data taken from patent US20110196000A1, “Use of succinate dehydrogenase (SDH) inhibitors in the treatment of plant species from the family of the true grasses” (Bayer CropScience AG, priority 2010, published 2011).
# Key:
# Type in all cases: in vivo
# [1] = test system: infection-free wheat plants of the cultivar Passat; assay: Glasshouse trial: yield components; conditions: for Ears/pot / Harvest Index / Kernels/ear / Straw / TKM (thousand-kernel mass) / Yield: glasshouse, sprays at BBCH 39 and 59
# wheat = assay: Effect on the number of kernels/ear
# Wheat plants = assay: Effect of single and double bixafen treatment on leaf area; conditions: for Area [rel.] of the flag leaf / Area [rel.] of the leaf F-1: untreated = 100
# Method: Trial procedure: Wheat plants were treated at different development stages with bixafen once or twice (125 g/ha each time), and a measurement was made of the respective size of the flag leaf and of the leaf F-1 at the time BBCH 75. For the destructive measurement of the leaf area, the leaves were removed from the plant. The non-destructive measurement was carried out on the intact leaf of the plant.
# [2] = treated at BBCH 33 (125 g/ha), measured at BBCH 75, destructive
# [3] = treated at BBCH 33 (125 g/ha), measured at BBCH 75, non-destructive
# [4] = treated at BBCH 33 + 39 (125 g/ha each time), measured at BBCH 75, destructive
# [5] = treated at BBCH 33 + 39 (125 g/ha each time), measured at BBCH 75, non-destructive
# [6] = treated at BBCH 33 + 59 (125 g/ha each time), measured at BBCH 75, destructive
# [7] = treated at BBCH 33 + 59 (125 g/ha each time), measured at BBCH 75, non-destructive
# [8] = treated at BBCH 39 (125 g/ha), measured at BBCH 75, destructive
# [9] = treated at BBCH 39 (125 g/ha), measured at BBCH 75, non-destructive
# [10] = treated at BBCH 39 + 59 (125 g/ha each time), measured at BBCH 75, destructive
# [11] = treated at BBCH 39 + 59 (125 g/ha each time), measured at BBCH 75, non-destructive
# [12] = treated at BBCH 59 (125 g/ha), measured at BBCH 75, destructive
# [13] = treated at BBCH 59 (125 g/ha), measured at BBCH 75, non-destructive
smiles,measurement,setting,value
OC(Cc1ccccc1Cl)(Cn1nc[nH]c1=S)C1(Cl)CC1 (stereo not shown) [Prothioconazole],Ears/pot,[1],43.1
same,Harvest Index,[1],27.3%
same,Kernels/ear,[1],22.2
same,Straw,[1],85.4 g/pot
same,TKM (thousand-kernel mass),[1],33.5 g
same,Yield,[1],32.1 g/pot
same,Kernels/ear,"wheat; 2nd trial, applied at BBCH 39 (prothioconazole 200 g a.i.; bixafen + prothioconazole 75 + 150 g a.i./ha)",30.1
"Cn1cc(C(=O)Nc2ccc(F)cc2-c2ccc(Cl)c(Cl)c2)c(C(F)F)n1 [Bixafen, N-(3′,4′-dichloro-5-fluoro-1,1′-biphenyl-2-yl)-3-(difluoromethyl)-1-methyl-1H-pyrazole-4-carboxamide]",yield components compared with the other comparison fungicides,"[1]; glasshouse trial, statement in words","a higher yield, a higher number of kernel/ear, a higher thousand-kernel mass and a lower straw fraction than the other comparison fungicides"
same,Ears/pot,[1],40.0
same,Harvest Index,[1],29.8%
same,Kernels/ear,[1],25.1
same,Straw,[1],88.5 g/pot
same,TKM (thousand-kernel mass),[1],37.5 g
same,Yield,[1],37.5 g/pot
same,Area of the flag leaf,Wheat plants; [2],32.13 cm^2
same,Area of the leaf F-1,Wheat plants; [2],32.69 cm^2
same,Length of the flag leaf,Wheat plants; [2],28.25 cm
same,Length of the leaf F-1,Wheat plants; [2],30.58 cm
same,Width of the flag leaf,Wheat plants; [2],1.47 cm
same,Width of the leaf F-1,Wheat plants; [2],1.35 cm
same,Area [rel.] of the flag leaf,Wheat plants; [2],115 rel.
same,Area [rel.] of the leaf F-1,Wheat plants; [2],119 rel.
same,Area of the flag leaf,Wheat plants; [3],35.23 cm^2
same,Length of the flag leaf,Wheat plants; [3],25.11 cm
same,Width of the flag leaf,Wheat plants; [3],1.66 cm
same,Area [rel.] of the flag leaf,Wheat plants; [3],109 rel.
same,Area of the flag leaf,Wheat plants; [4],29.38 cm^2
same,Area of the leaf F-1,Wheat plants; [4],28.42 cm^2
same,Length of the flag leaf,Wheat plants; [4],24.49 cm
same,Length of the leaf F-1,Wheat plants; [4],27.68 cm
same,Width of the flag leaf,Wheat plants; [4],1.40 cm
same,Width of the leaf F-1,Wheat plants; [4],1.27 cm
same,Area [rel.] of the flag leaf,Wheat plants; [4],105 rel.
same,Area [rel.] of the leaf F-1,Wheat plants; [4],103 rel.
same,Area of the flag leaf,Wheat plants; [5],35.37 cm^2
same,Length of the flag leaf,Wheat plants; [5],24.49 cm
same,Width of the flag leaf,Wheat plants; [5],1.76 cm
same,Area [rel.] of the flag leaf,Wheat plants; [5],109 rel.
same,Area of the flag leaf,Wheat plants; [6],31.28 cm^2
same,Area of the leaf F-1,Wheat plants; [6],30.07 cm^2
same,Length of the flag leaf,Wheat plants; [6],27.10 cm
same,Length of the leaf F-1,Wheat plants; [6],29.77 cm
same,Width of the flag leaf,Wheat plants; [6],1.51 cm
same,Width of the leaf F-1,Wheat plants; [6],1.30 cm
same,Area [rel.] of the flag leaf,Wheat plants; [6],112 rel.
same,Area [rel.] of the leaf F-1,Wheat plants; [6],109 rel.
same,Area of the flag leaf,Wheat plants; [7],37.41 cm^2
same,Length of the flag leaf,Wheat plants; [7],25.83 cm
same,Width of the flag leaf,Wheat plants; [7],1.73 cm
same,Area [rel.] of the flag leaf,Wheat plants; [7],115 rel.
same,Area of the flag leaf,Wheat plants; [8],29.04 cm^2
same,Area of the leaf F-1,Wheat plants; [8],28.37 cm^2
same,Length of the flag leaf,Wheat plants; [8],25.81 cm
same,Length of the leaf F-1,Wheat plants; [8],28.27 cm
same,Width of the flag leaf,Wheat plants; [8],1.40 cm
same,Width of the leaf F-1,Wheat plants; [8],1.19 cm
same,Area [rel.] of the flag leaf,Wheat plants; [8],104 rel.
same,Area [rel.] of the leaf F-1,Wheat plants; [8],103 rel.
same,Area of the flag leaf,Wheat plants; [9],34.86 cm^2
same,Length of the flag leaf,Wheat plants; [9],24.21 cm
same,Width of the flag leaf,Wheat plants; [9],1.72 cm
same,Area [rel.] of the flag leaf,Wheat plants; [9],108 rel.
same,Area of the flag leaf,Wheat plants; [10],32.44 cm^2
same,Area of the leaf F-1,Wheat plants; [10],30.28 cm^2
same,Length of the flag leaf,Wheat plants; [10],26.57 cm
same,Length of the leaf F-1,Wheat plants; [10],29.38 cm
same,Width of the flag leaf,Wheat plants; [10],1.52 cm
same,Width of the leaf F-1,Wheat plants; [10],1.20 cm
same,Area [rel.] of the flag leaf,Wheat plants; [10],116 rel.
same,Area [rel.] of the leaf F-1,Wheat plants; [10],110 rel.
same,Area of the flag leaf,Wheat plants; [11],39.44 cm^2
same,Length of the flag leaf,Wheat plants; [11],26.83 cm
same,Width of the flag leaf,Wheat plants; [11],1.77 cm
same,Area [rel.] of the flag leaf,Wheat plants; [11],122 rel.
same,Area of the flag leaf,Wheat plants; [12],32.37 cm^2
same,Area of the leaf F-1,Wheat plants; [12],30.55 cm^2
same,Length of the flag leaf,Wheat plants; [12],26.58 cm
same,Length of the leaf F-1,Wheat plants; [12],31.10 cm
same,Width of the flag leaf,Wheat plants; [12],1.47 cm
same,Width of the leaf F-1,Wheat plants; [12],1.26 cm
same,Area [rel.] of the flag leaf,Wheat plants; [12],116 rel.
same,Area [rel.] of the leaf F-1,Wheat plants; [12],111 rel.
same,Area of the flag leaf,Wheat plants; [13],37.91 cm^2
same,Length of the flag leaf,Wheat plants; [13],23.78 cm
same,Width of the flag leaf,Wheat plants; [13],2.02 cm
same,Area [rel.] of the flag leaf,Wheat plants; [13],117 rel.
same,Kernels/ear,"wheat; 1st. trial, applied at BBCH 33 + 59, twice 125 g a.i.",41.7
same,Kernels/ear,"wheat; 1st. trial, applied at BBCH 39 (bixafen 125 g a.i.; bixafen + prothioconazole 75 + 150 g a.i.)",42.6
